# From patent US7368570B2, “Organometallic complexes as singlet oxygen sensitizers” (University of Southern California, priority 2003, dated 2008)
# Assays:
# [1] = quantum yield for singlet oxygen production from 1O2 luminescence at 1268 nm; type: physicochemical; conditions: for ΦΔ532 nm: only measured if compounds absorb at 532 nm; for ΦΔ quantum yield for singlet oxygen generation: benzene, air-saturated
# Source text: The quantum yields for singlet oxygen production (ΦΔ) were obtained by measuring the intensity of the ^1O2 luminescence signal (λmax=1268 nm). Measurements were taken with 355 and 532 nm excitation (λ), in air-saturated solutions.
# The quantum yields were obtained by measuring the intensity of the ^1O2 luminescence signal (λmax=1268 nm), with a liquid nitrogen cooled germanium photodiode. Measurements were taken at 355 and 532 nm excitation, in air-saturated solutions, with TPP, C60 and Perinaphthenone as references. The optical density of the photosensitizer solutions was generally kept between 0.05 and 0.4 at 355 nm excitation wavelength, and 0.03 and 0.2 at 532 nm excitation wavelength.
# [2] = singlet oxygen luminescence quenching rate constants; type: physicochemical; conditions: for kq singlet oxygen quenching rate: Table 3, not marked MeOD, TPP in benzene or chloroform
# Method: (§1) TPP in benzene or chloroform with OD 0.5-0.7 was used as blank/solvent solution to produce singlet oxygen. The intensity of ^1O2 luminescence signals was measured at 532 nm excitation in air-saturated solutions with a liquid nitrogen cooled germanium photodiode at 1268 nm. 0.02-0.5 mL quencher stock solution of Ir(III) complexes in […] was added to the blank solution. The decay trace of singlet oxygen was then re-measured, and the additions repeated 6-10 times. Singlet oxygen quenching rate constants by the Ir(III) complexes were obtained from the slopes of Stern Volmer plots (See FIG. 7).
# [3] = phosphorescence emission properties in solution; type: physicochemical; conditions: room temperature, from the phosphorescence spectrum
# Source text: Table 3 provides quantum yields and singlet oxygen quenching rates for Ir(III) and Pt(II) complexes of this invention. Eem(eV)=the emission maximum energy in eV at room temperature, as determined from the phosphorescence spectrum; ΦPE=the quantum efficiency for emission in solution; τPE=the emission lifetime at room temperature or 77K (in solution).
# [4] = solubility; type: physicochemical
# Method: as §1
# [5] = from references (footnote e), cited from earlier work; for λem: emission
# [6] = oxidation and excited state redox potentials; type: physicochemical
# [7] = 355 nm, reference value; cited from earlier work
# [8] = 355 nm excitation, Table 3, not marked MeOD
Compound,"ΦΔ355 nm [1, 8]",ΦΔ532 nm ([1]; 532 nm excitation),kq singlet oxygen quenching rate [2],Eem emission maximum energy [3] [eV],λem [5] [nm],other results
[CH3][Pt]1([CH3])[N]2C=CC=c3ccc4c(c32)[N]1C=CC=4 [(Phen)PtMe2],0,0,(2.0 ± 0.2) × 10^9 M^−1s^−1,–,–,–
"NCC(=O)[O][Ir]([c]1ccc2ccccc2c1-c1nc2ccccc2s1)[c]1ccc2ccccc2c1-c1nc2ccccc2s1 [BSN-G, iridium(III) bis(2-(1-naphthyl)benzothiazolato-N,C^2)glycinate]",0.54 ± 0.02,0.81 ± 0.06,(2.1 ± 0.5) × 10^6 M^−1s^−1,2.05,606,"ΦΔ quantum yield for singlet oxygen generation ([1]; 355 nm excitation): 0.54 ± 0.02; ΦΔ355 nm ([1]; 355 nm excitation, measured in MeOD): 0.62 ± 0.05; ΦΔ quantum yield for singlet oxygen generation ([1]; 532 nm excitation): 0.81 ± 0.06; solubility remark ([4]; line marked measured in MeOD): Not soluble"
CC1=CC(c2ccccc2)=c2ccc3c4c2[N]1[Pt]([CH3])([CH3])[N]4C(C)=CC=3c1ccccc1 [(PhenPh2)PtMe2],0,0,(1.7 ± 0.2) × 10^9 M^−1s^−1,–,–,–
"c1ccc(-c2cccc[c]2[Ir]([c]2ccccc2-c2ccccn2)[c]2ccccc2-c2ccccn2)nc1 [(ppy)3Ir, Tris-(2-phenylpyridinato, N, C^2′) iridium (III)]",0.92 ± 0.07,–,–,–,–,"E(Sen^+/*) excited state redox potential ([6]; vs. NHE, E00 estimated using Eem): −1.45 V; E(Sen^+/0) oxidation potential ([6]; vs. ferrocene/ferrocenium): 0.32 V; solubility remark ([4]; Table 3, not marked MeOD): Not soluble"
CC(=O)C=C(C)[O][Ir]([c]1ccccc1-c1nc2ccccc2o1)[c]1ccccc1-c1nc2ccccc2o1 [(bo)2Ir(acac)],0.76 ± 0.06,–,(1.8 ± 0.3) × 10^5 M^−1s^−1,2.36,525,ΦPE quantum efficiency for emission in solution [5]: 0.25
CC(=Nc1cc(C)cc(C)c1)C(C)=Nc1cc(C)cc(C)c1.[CH3][Pt][CH3] [(CyPh2)PtMe2],0,0,(1.5 ± 0.1) × 10^9 M^−1s^−1,–,–,–
c12c3c4c5c1c1c6c7c2c2c8c3c3c9c4c4c%10c5c5c1c1c6c6c%11c7c2c2c7c8c3c3c8c9c4c4c9c%10c5c5c1c1c6c6c%11c2c2c7c3c3c8c4c4c9c5c1c1c6c2c3c41 [Photosensitizer C60],–,–,–,–,–,ΦΔ of reference for quantum yield measurements [7]: 0.76
O=C1C=Cc2cccc3cccc1c23 [Perinaphthenone],–,–,–,–,–,ΦΔ of reference for quantum yield measurements [7]: 0.95
[CH3][Pt][CH3].c1ccc(-c2ccccn2)nc1 [(bpy)PtMe2],0,0,(2.4 ± 0.1) × 10^9 M^−1s^−1,–,–,–
"iridium(III) bis(2-phenylbenzothiazolato-N, C^2)pyridyl chloride [BT-py]",0.95 ± 0.09,1.00 ± 0.09,–,2.23,558,"singlet oxygen quantum yield / production, in words [1]: high quantum yield; ΦΔ quantum yield for singlet oxygen generation ([1]; 355 nm excitation): 0.95 ± 0.09; ΦΔ quantum yield for singlet oxygen generation ([1]; 532 nm excitation): 1.00 ± 0.09; singlet oxygen quenching, in words [2]: no measurable singlet oxygen quenching; kq(^1O2) singlet oxygen quenching rate ([2]; benzene): None"
